The source made the active and inactive calls.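 The calls were made as follows: active = IC50 against T. cruzi CYP51 below a set limit; inactive = the rest.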
molecular target: Sterol 14-alpha demethylase (Trypanosoma cruzi (strain CL Brener)) (UniProt Q7Z1V1); experiment: TcCYP51 inhibitors, dose response, mechanism study for T. cruzi antiparasitic project, biochemical, recombinant enzyme (AID 1159558);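 also: enzyme in bacterial membranes with Anopheles gambiae CYP reductase and cytochrome b5 partners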; settings: recombinant T. cruzi CYP51, BOMCC fluorescence
Sequence (Q7Z1V1 whole entry, looked up): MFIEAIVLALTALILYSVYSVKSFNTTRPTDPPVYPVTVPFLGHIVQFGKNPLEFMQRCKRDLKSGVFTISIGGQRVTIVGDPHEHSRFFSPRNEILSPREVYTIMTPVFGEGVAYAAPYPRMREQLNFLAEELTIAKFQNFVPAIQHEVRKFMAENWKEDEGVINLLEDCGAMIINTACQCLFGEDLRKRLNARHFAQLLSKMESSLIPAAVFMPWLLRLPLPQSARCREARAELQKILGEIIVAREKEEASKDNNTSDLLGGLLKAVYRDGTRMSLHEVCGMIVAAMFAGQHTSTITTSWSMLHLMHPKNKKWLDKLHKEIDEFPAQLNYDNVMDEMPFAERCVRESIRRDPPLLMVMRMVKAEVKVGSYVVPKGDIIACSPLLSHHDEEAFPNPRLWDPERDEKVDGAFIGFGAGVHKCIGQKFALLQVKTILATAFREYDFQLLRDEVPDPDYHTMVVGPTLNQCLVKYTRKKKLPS

Structure (SMILES)	IC50
Cc1cc(Br)cc(C(=O)c2c(C(C)C)c(=O)[nH]c(=O)n2Cc2ccnc(N)c2)c1	0.016 µM
COc1ccc(NS(=O)(=O)c2cc(NC(=O)c3ccc([N+](=O)[O-])s3)ccc2OC)cc1	1 µM
COc1ccc(-c2ccc3nnc(-c4ccc(O)c(OC)c4)n3c2)cn1	> 100 µM (inactive)
NS(=O)(=O)c1ccc(Nc2nccc(-c3cnn4ncccc34)n2)cc1	> 100 µM (inactive)
Cc1cn[nH]c1C1CCCN(Cc2nc3ccccc3n2C)C1 (stereo not given)	1.3 µM
O=C1CN(Cc2ccco2)C2CS(=O)(=O)CC2N1c1ccc(Cl)cc1 (stereo not given)	> 100 µM (inactive)
Cc1ccc(NC(=O)c2ccnc(N3CCCC3)c2)cc1-c1cc(C(N)=O)ccc1C	4 µM
O=C(CSc1nnc2ccc(-c3ccc(F)cc3)nn12)N1CCCCC1	> 100 µM (inactive)
CCn1nccc1CN(C)C(=O)C=Cc1ccc(Cl)cc1	0.32 µM
CNC(=O)C1Cc2ccccc2N1C(=O)COc1cccc(OC)c1 (stereo not given)	100 µM
N#Cc1cccc(CNc2ccc(-c3cnn(CC4CC4)c(=O)c3C#N)cc2)c1	6.3 µM
O=C(NCCNc1noc(-c2ccc([N+](=O)[O-])cc2)n1)c1ccc(Cl)cc1	> 100 µM (inactive)
CC(=O)Nc1cccc(Nc2ncnc3nc[nH]c23)c1	> 100 µM (inactive)
COc1ccc(C(C)(C)C)cc1S(=O)(=O)n1ccnc1	0.0079 µM
Cn1nccc1NC(=O)Cn1ccc(-c2ccncc2)n1	6.3 µM
O=C(NCc1ccc(Cl)cc1)C1CN(C(=O)c2ccc(F)cc2)CCS1 (stereo not given)	13 µM
CC(C)c1cc(C(=O)N2CCCC(c3cc4ncccc4[nH]3)C2)on1 (stereo not given)	50 µM
CS(=O)(=O)N1CCC(Nc2ncc(Br)c(Nc3cccc(F)c3C(N)=O)n2)CC1	> 100 µM (inactive)
COc1ccc2nccc([C@H](O)CN3CC[C@H](NC(=O)c4ccc(Br)cc4)[C@@H](O)C3)c2n1	6.3 µM
O=C(N1CCc2ccccc2CC1)C1(C(=O)N2CCC(n3c(=O)[nH]c4ncccc43)CC2)CC1	0.32 µM

Structure (SMILES)	IC50
Cc1cc(C#N)c([N+](=O)[O-])cc1Br	7.9 µM
O=C(CCCNC(=O)c1ccc(Cl)cc1)Nc1nc(-c2ccccn2)cs1	3.2 µM
COc1cnc2ccc(=O)n(CCN3CCC(NC/C=C/c4cc(F)ccc4F)CC3)c2c1	16 µM
O=C(Nc1ccccc1C(=O)Nc1ccccn1)c1ccco1	> 100 µM (inactive)
CCc1c(C)nc(-n2nc(C)cc2NC(=O)COc2ccccc2F)[nH]c1=O	> 100 µM (inactive)
Fc1ccc(Nc2nc(-c3ccccn3)cs2)cc1	16 µM
COc1ccccc1C=CCN1C[C@H]2CCC[C@@H](C1)C2(O)c1cccnc1 (stereo not given in full)	0.13 µM
CCOc1ccc(NC(=O)c2ccc(NC(=O)NC3CCCCC3)cc2)cc1	> 100 µM (inactive)
COc1ccc(CNc2cc(C3CC3)nc(-c3nccn3C)n2)cc1	5 µM
NC(=O)c1ncc(N[C@@H]2CCCNC2)nc1Nc1cccc(Cl)c1	> 100 µM (inactive)
COc1ccc(CN2C(=O)C(O)(CC(=O)c3ccncc3)c3cc(Br)ccc32)cc1OC (stereo not given)	0.5 µM
CN(C)S(=O)(=O)c1cccc(CSc2nnc(-c3ccc4c(c3)OCO4)o2)c1	13 µM
CNc1nc(C)nc(N2CCc3cc(C(=O)NCc4ccc(-c5nccn5C)cc4Cl)ccc32)n1	1.6 µM
CC(C)CC(=O)NC(c1cccs1)c1ccc2cccnc2c1O (stereo not given)	50 µM
O=C(NC(c1ccc(Cl)cc1)c1cnccn1)C1CCN(C(=O)Nc2cccc(C(F)(F)F)c2)CC1 (stereo not given)	0.13 µM
COc1ccccc1-c1c(C)[nH]c2nc(N)nc(C)c12	> 100 µM (inactive)
CCN(CC)S(=O)(=O)c1ccc(OC)c(NC(=O)c2ccc([N+](=O)[O-])s2)c1	32 µM
O=C(Cn1cnc2c(-c3ccccc3)csc2c1=O)N1CCCCC1	40 µM
O=C(Cn1cnc([N+](=O)[O-])n1)Nc1ccc(Cl)cc1C(=O)c1ccccc1	10 µM
C=CC[C@@H]1CC=C[C@@H](C)N1C(=O)CCc1nnc(-c2ccc3c(c2)OCO3)o1	40 µM

Structure (SMILES)	IC50
CC(Cn1ccnc1)NC(=O)C=Cc1ccc(Cl)cc1 (stereo not given)	0.16 µM
OC1CCC(Nc2nccc(-c3sc(C4CCOCC4)nc3-c3ccc(F)c(F)c3)n2)CC1 (stereo not given)	> 100 µM (inactive)
CN1CCN(c2nc(-c3ccc(Cl)cc3)c3c(N)n(C)nc3n2)CC1	> 100 µM (inactive)
Cc1nn(-c2nc(N)nc(-c3ccccn3)n2)c(C)c1Cc1ccccc1	63 µM
Cc1ccc2ccc(C(Nc3ccccn3)c3cccnc3)c(O)c2n1 (stereo not given)	0.05 µM
COc1cc(Nc2nccc(Nc3onc(C)c3C)n2)cc(S(=O)(=O)C2CCOCC2)c1	7.9 µM
CCCCNc1nccc(-c2c(-c3ccc(F)cc3)nn3c(N4CCOCC4)cccc23)n1	> 100 µM (inactive)
CCC(CC)C(=O)Nc1cccc(C(=O)Nc2nnc(C3CCCCC3)s2)c1	> 100 µM (inactive)
CCN(Cc1nc2ccc(C(=O)N3CCN(c4ncccn4)CC3)cc2[nH]1)C1CCCc2cccnc21 (stereo not given)	7.9 µM
CC1(Oc2cncc(Cl)c2)CCN(Cc2cc3ccccc3[nH]2)C1 (stereo not given)	10 µM
O=C(c1cccc(Nc2ncc(-c3ccc4c(c3)OCO4)cn2)c1)N1CCOCC1	20 µM
COc1ccc(S(=O)(=O)Nc2ccc(C(=O)Nc3nc(-c4ccccn4)cs3)cc2)cc1	0.4 µM
COc1cnc2ccc(=O)n(CCN3CCC(NC(=O)c4ccc(Cl)cc4)CC3)c2c1	10 µM
Cc1nc(C(=O)Nc2ccc3c(c2)OCO3)nn1-c1ccc(Cl)cc1	32 µM
O=C(Nc1nc2ccccc2[nH]1)c1c(O)c2cccc3c2n(c1=O)CC3	> 100 µM (inactive)
CC(=O)Nc1ccc(-c2ccnc(Nc3cccc(C#N)c3)n2)cc1	25 µM
Nc1nc(-c2ccccc2)cc(-c2nc3ncccc3[nH]2)n1	> 100 µM (inactive)
O=[N+]([O-])c1cccc(Nc2cncc(-c3ccccc3CO)c2)c1	3.2 µM
COc1cc(F)c2ncc(F)c(CCN3CC[C@H](NCc4cc5c(cn4)OCS5)[C@@H](O)C3)c2c1	32 µM
CC(C)Oc1ccc(C(=O)Nc2ccc(N3CCOCC3)c(Cl)c2)cc1	> 100 µM (inactive)
